The numbers were not newly measured in US20230302026A1, “IMMUNOMODULATION FORMULATIONS AND RELATED METHODS” (priority 2020, published 2023), which cites them from elsewhere.

Each structure is given as a SMILES string. In brackets after ≈: the same amount, converted by molar mass. Read-outs that look alike come from different tables or passages of the source.

Among the targets are TRPV1 (Homo sapiens, UniProt Q8NER1); GPR55 (Homo sapiens, UniProt Q9Y2T6); Adenosine A2A (Homo sapiens, UniProt P29274).
Series [1] has as its target T1, CB2 (Homo sapiens, UniProt P34972).
Another series relates to inflammation. The following applies: animal model.
For series [2], the target named is T2, CB1 (Homo sapiens, UniProt P21554). The following applies: read-out: Ki, affinity for the human recombinant CB1 receptor.
Target sequence in this assay (P21554 whole entry): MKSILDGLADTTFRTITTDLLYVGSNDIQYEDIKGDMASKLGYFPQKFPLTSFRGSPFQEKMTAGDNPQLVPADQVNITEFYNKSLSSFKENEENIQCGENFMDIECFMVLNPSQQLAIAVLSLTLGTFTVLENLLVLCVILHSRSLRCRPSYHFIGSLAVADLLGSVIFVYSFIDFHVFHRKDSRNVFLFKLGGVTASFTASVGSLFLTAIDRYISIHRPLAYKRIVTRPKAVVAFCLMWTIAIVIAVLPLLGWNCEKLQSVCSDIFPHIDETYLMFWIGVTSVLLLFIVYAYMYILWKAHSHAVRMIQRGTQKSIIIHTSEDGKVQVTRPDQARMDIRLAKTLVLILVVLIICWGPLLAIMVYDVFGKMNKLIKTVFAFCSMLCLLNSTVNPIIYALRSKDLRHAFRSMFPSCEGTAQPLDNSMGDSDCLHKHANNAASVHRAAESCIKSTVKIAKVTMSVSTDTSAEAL
In series [3] the target is T3, FAAH (Homo sapiens, UniProt O00519).
T3 sequence (O00519 1-579): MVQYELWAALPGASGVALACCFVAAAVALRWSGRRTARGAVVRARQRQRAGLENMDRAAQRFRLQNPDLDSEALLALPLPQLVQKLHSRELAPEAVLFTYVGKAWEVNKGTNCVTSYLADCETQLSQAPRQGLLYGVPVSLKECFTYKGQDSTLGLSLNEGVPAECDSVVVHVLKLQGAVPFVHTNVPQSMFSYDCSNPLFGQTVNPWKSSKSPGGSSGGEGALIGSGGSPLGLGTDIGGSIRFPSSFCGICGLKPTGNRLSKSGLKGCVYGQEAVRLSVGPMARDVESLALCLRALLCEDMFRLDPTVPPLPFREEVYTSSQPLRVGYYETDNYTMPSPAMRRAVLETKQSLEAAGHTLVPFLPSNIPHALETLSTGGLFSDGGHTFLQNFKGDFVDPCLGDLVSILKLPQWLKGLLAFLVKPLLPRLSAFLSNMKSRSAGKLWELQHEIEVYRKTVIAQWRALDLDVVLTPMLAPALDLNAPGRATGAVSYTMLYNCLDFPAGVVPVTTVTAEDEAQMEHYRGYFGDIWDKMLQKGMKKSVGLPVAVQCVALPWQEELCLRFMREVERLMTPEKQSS

Series [4] has as its target T2, CB1.
Target sequence in this assay (P21554 whole entry, species assumed): as the sequence (P21554 whole entry) above
For a further series, the target named is T4, 5-HT1a (Homo sapiens, UniProt P08908).
T4 sequence (P08908 1-422): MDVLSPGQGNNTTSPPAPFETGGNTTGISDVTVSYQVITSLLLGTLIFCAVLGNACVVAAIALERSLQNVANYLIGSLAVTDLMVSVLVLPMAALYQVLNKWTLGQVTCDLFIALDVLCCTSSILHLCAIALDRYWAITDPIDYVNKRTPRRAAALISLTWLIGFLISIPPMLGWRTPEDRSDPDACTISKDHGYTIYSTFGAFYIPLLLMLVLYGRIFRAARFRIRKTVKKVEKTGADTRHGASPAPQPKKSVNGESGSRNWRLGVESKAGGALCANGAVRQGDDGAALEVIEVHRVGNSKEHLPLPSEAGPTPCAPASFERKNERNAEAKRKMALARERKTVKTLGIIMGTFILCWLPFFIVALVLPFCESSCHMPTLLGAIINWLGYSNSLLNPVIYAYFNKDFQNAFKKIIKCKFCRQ

Series [5] concerns the target T1, CB2. This is another data set of the same source.
In another series the target is monoamine oxidase. The settings on record: in vitro; read-out: IC50 as monoamine oxidase inhibitor (MAOI).
The subject of series [6] is FAAH. The settings on record: read-out: IC50 as FAAH inhibitor.
The target of the next series is T5, MAGL (Homo sapiens, UniProt Q99685).
T5 sequence (Q99685 1-303): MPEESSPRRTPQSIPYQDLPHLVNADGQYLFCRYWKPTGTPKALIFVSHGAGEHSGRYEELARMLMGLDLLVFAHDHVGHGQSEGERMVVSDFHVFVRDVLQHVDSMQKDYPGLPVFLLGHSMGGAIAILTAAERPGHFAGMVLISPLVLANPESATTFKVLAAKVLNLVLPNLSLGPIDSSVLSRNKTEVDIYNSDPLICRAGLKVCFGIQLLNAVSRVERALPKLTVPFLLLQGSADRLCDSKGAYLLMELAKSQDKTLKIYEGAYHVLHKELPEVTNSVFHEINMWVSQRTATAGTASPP
The settings on record: read-out: IC50 as MAGL inhibitor.

For series [7] the following is noted: at 18° C.

T1 sequence (P34972 whole entry): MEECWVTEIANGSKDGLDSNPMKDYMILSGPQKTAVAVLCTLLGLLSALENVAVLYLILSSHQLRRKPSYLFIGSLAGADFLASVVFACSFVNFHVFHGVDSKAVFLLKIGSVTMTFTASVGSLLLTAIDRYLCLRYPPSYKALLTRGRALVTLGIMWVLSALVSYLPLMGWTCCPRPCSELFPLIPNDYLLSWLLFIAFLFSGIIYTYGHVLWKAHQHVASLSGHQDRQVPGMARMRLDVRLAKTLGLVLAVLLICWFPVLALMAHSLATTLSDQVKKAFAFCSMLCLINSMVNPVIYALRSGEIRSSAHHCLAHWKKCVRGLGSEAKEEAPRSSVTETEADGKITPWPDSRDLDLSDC
Chain of Adenosine A2A (P29274 whole entry): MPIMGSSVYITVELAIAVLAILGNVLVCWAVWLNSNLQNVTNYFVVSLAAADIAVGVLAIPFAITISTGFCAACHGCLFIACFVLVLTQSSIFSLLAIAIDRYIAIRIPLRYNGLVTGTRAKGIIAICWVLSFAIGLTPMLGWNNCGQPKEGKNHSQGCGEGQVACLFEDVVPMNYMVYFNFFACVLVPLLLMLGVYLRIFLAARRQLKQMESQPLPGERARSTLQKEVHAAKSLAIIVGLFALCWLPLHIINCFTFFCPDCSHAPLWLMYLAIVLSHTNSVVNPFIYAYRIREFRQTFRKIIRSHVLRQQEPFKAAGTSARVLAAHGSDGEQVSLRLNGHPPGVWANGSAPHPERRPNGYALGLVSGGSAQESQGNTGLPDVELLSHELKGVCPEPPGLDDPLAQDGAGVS
Chain of GPR55 (Q9Y2T6 whole entry, species assumed): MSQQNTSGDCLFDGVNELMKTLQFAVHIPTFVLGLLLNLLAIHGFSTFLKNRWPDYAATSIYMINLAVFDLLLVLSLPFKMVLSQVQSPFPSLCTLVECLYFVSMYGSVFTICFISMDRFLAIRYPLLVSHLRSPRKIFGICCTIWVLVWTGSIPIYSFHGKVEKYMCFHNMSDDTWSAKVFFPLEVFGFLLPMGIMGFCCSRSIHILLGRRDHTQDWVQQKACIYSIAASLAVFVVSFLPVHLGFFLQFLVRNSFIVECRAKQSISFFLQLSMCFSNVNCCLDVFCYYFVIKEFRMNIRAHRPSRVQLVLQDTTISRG
Chain of TRPV1 (Q8NER1 whole entry, species assumed): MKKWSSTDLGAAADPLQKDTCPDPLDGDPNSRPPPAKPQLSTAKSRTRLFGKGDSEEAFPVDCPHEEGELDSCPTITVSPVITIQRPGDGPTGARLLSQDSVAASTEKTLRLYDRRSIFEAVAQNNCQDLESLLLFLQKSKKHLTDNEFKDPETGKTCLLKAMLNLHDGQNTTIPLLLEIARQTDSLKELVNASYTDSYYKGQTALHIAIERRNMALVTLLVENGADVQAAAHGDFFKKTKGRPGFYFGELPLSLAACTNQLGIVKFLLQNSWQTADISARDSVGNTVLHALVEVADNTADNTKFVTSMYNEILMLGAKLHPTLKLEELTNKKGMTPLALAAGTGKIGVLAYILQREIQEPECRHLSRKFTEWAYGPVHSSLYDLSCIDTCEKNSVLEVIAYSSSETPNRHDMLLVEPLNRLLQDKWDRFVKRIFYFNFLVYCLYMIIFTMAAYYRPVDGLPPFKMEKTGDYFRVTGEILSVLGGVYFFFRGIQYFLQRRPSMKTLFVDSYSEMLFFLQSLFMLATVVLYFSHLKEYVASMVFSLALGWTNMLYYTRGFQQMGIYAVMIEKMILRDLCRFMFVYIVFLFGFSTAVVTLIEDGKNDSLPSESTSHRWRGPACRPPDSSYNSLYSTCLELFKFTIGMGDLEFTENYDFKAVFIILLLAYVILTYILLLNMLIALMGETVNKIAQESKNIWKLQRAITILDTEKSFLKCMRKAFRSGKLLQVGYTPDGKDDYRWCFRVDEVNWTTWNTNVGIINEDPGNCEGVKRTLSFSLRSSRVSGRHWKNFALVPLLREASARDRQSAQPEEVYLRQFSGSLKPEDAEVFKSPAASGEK

Consider `c1ccc2c(Cc3c[nH]c4ccccc34)c[nH]c2c1` [3,3′-Diindolylmethane], for which the Ki (commonly the dissociation constant of the complex between target and ligand, obtained from inhibition or displacement) on CB2 [1] is about 1000 nM.

Turning to `C=C1CC/C=C(\C)CC[C@@H]2[C@@H]1CC2(C)C` [(E)-BCP, beta-carophyllene], the Ki at CB2 [1] was 155 ± 4 nM.

As for `C/C1=C\CC/C(C)=C/CC(C)(C)/C=C/C1` [Humulene], in the series on inflammation, the anti-inflammatory activity entry is “equal to dexamethasone”.

With `CCCCCc1cc(O)c2c(c1)OC(C)(C)[C@@H]1CCC(C)=C[C@@H]21` [THC, Δ^9-tetrahydrocannabinol], the “activity at CB2” value on CB2 [1] is listed as “partial agonist”.

For `COc1ccc(/C=C/c2cc(OC)cc(=O)o2)cc1` [Yangonin, yangonin], the Ki was 720 nM on CB1 [2] and over 10000 nM at CB2 [1].

As for `C=C(C)[C@@H]1CCC(C)=C[C@H]1c1c(O)cc(CCCCC)cc1O` [cannabidiol], the “Activity at FAAH” value at FAAH [3] is on record as “Inhibition”. Also, the “Activity at CB1” value on CB1 [4] is given as “Agonist”. For the same molecule, at TRPV1, the “Activity at TRPV1” value is “Agonist”. Further, the “Activity at 5-HT1a” value on 5-HT1a is on record as “Agonist”. Besides, the “Activity at GPR55” value on GPR55 is listed as “Antagonist”. For the same molecule, the “activity at CB2” value on CB2 [5] is “Agonist”. Moreover, the “Activity at Adenosine A2A” value on Adenosine A2A was “Agonist”.

For `CC(C)CNC(=O)/C=C/C=C/CCCCCC/C=C/c1ccc2c(c1)OCO2` [guineesine], the half-maximal inhibitory concentration (IC50) – broadly, the point on the concentration scale where inhibition reaches its midpoint – on monoamine oxidase is 139000 nM.

As for `O=c1c(O)c(-c2ccc(O)cc2)oc2cc(O)cc(O)c12` [kaempherol], the IC50 in the series on FAAH [6] was under 1000 nM; on MAGL it was under 100 nM.

In the case of `O=C(/C=C/C=C/c1ccc2c(c1)OCO2)N1CCCCC1` [piperine], in series [7], the solubility in water was 40 µg/mL (≈ 140 µM).

For `C=CC(C)(C)c1cc2cc3c(cc2oc1=O)OC(C(C)(C)OC(C)=O)C3` (stereo not drawn) [rutamarin], the Ki at CB2 [1] was under 10000 nM.
